Results reported in patent US20250176599A1, “FLAVOR COMPOSITION AND FOOD AND BEVERAGE” (TAKASAGO INTERNATIONAL CORPORATION, priority 2021, published 2025).

Assays:
[1] = Sensory evaluation of aqueous solution III containing 1-octen-3-one 1 ppb: off-flavor intensity and masking component intensity; conditions: 1-octen-3-one 1 ppb, average score 0-4
Experimental: (§1) In ion-exchanged water, each degradation component was added to achieve the concentrations listed in Table 1, and aqueous solutions I to VI containing these degradation components were prepared.
(§2) For the aforementioned aqueous solutions containing degradation components, nootkatone was added at the concentrations listed in Table 2 to confirm the intensity of the off-flavor (masking effect) in each sample and the intensity of the masking component itself (the impact on the flavor of the food and/or beverage itself).
(§3) The test was conducted as follows. Eight experienced panelists were selected to conduct a sensory evaluation. The intensity of the off-flavor of the aqueous solution containing the degradation components derived from unsaturated fatty acids, without added masking components, was set as “Evaluation: 4.” The ion-exchanged water free of any degradation components was set as “Evaluation: 0.” The intensity of the off-flavor (masking effect) of each sample was then relatively evaluated according to the following evaluation criteria.
(§4) • Off-flavor is strongly sensed: 4 points • Off-flavor is sensed: 3 points • Off-flavor is slightly sensed: 2 points • Off-flavor is barely sensed: 1 point • Off-flavor is not sensed at all: 0 points
(§5) Also, the intensity of the masking components (impact on the flavor of the food and/or beverage itself) was absolutely evaluated according to the following evaluation criteria.
(§6) • Masking component is strongly sensed: 4 points • Masking component is sensed: 3 points • Masking component is slightly sensed: 2 points • Masking component is barely sensed: 1 point • Masking component is not sensed at all: 0 points

[2] = Sensory evaluation of aqueous solution IV containing 1,5-octadien-3-one 100 ppt: off-flavor intensity and masking component intensity; conditions: aqueous solution IV, 1,5-octadien-3-one 100 ppt, average score 0-4
Experimental: as §1, §2, §3, §4, §5, §6

[3] = Overall conclusion of the sensory evaluation across aqueous solutions I to VI
Experimental: as §1, §2, §3, §4, §5, §6

[4] = Sensory evaluation of aqueous solution VI containing 1,5-octadien-3-ol 10 ppb: off-flavor intensity and masking component intensity; conditions: aqueous solution VI, 1,5-octadien-3-ol 10 ppb, average score 0-4
Experimental: as §1, §2, §3, §4, §5, §6

[5] = Sensory evaluation of aqueous solution I containing (E)-2-nonenal 1 ppb: off-flavor intensity and masking component intensity; conditions: (E)-2-nonenal 1 ppb, average score 0-4
Experimental: as §1, §2, §3, §4, §5, §6

[6] = Sensory evaluation of aqueous solution II containing (E)-2-octenal 10 ppb: off-flavor intensity and masking component intensity; conditions: (E)-2-octenal 10 ppb, average score 0-4
Experimental: as §1, §2, §3, §4, §5, §6

[7] = Sensory evaluation of aqueous solution V containing 1-octen-3-ol 10 ppb: off-flavor intensity and masking component intensity; conditions: 1-octen-3-ol 10 ppb, average score 0-4
Experimental: as §1, §2, §3, §4, §5, §6

C=CC(C)(CCC=C(C)C)OC(=O)CCC (stereo not shown) [Linalyl Butyrate, linalyl butyrate]
Off-Flavor Intensity ([1]; 1 ppb added): 2.6 points | Off-Flavor Intensity ([1]; 1 ppm added): 1.5 points | Off-Flavor Intensity ([1]; 5 ppm added): 1.0 points | Off-Flavor Intensity ([1]; 10 ppb added): 2.3 points | Off-Flavor Intensity ([1]; 10 ppt added): 3.5 points | Off-Flavor Intensity ([1]; 50 ppb added): 1.9 points | Off-Flavor Intensity ([1]; 100 ppb added): 1.9 points | Off-Flavor Intensity ([1]; 100 ppt added): 3.3 points | Off-Flavor Intensity ([1]; 500 ppb added): 1.8 points | Off-Flavor Intensity ([2]; 1 ppb added): 2.9 points | Off-Flavor Intensity ([2]; 1 ppm added): 0.9 points | Off-Flavor Intensity ([2]; 5 ppm added): 0.9 points | Off-Flavor Intensity ([2]; 10 ppb added): 2.6 points | Off-Flavor Intensity ([2]; 10 ppt added): 3.6 points | Off-Flavor Intensity ([2]; 50 ppb added): 2.1 points | Off-Flavor Intensity ([2]; 100 ppb added): 1.6 points | Off-Flavor Intensity ([2]; 100 ppt added): 3.0 points | Off-Flavor Intensity ([2]; 500 ppb added): 1.3 points | concentration that masks the off-flavor and does not affect the flavor of the food and/or beverage itself, lower limit [3]: ≥ 10 ppt | concentration that masks the off-flavor and does not affect the flavor of the food and/or beverage itself, upper limit [3]: ≤ 1 ppm | Off-Flavor Intensity ([4]; 1 ppb added): 2.0 points | Off-Flavor Intensity ([4]; 1 ppm added): 0.5 points | Off-Flavor Intensity ([4]; 5 ppm added): 0.1 points | Off-Flavor Intensity ([4]; 10 ppb added): 1.8 points | Off-Flavor Intensity ([4]; 10 ppt added): 2.5 points | Off-Flavor Intensity ([4]; 50 ppb added): 1.5 points | Off-Flavor Intensity ([4]; 100 ppb added): 1.3 points | Off-Flavor Intensity ([4]; 100 ppt added): 2.4 points | Off-Flavor Intensity ([4]; 500 ppb added): 0.9 points | Off-Flavor Intensity ([5]; 1 ppb added): 2.6 points | Off-Flavor Intensity ([5]; 1 ppm added): 1.3 points | Off-Flavor Intensity ([5]; 5 ppm added): 1.0 points | Off-Flavor Intensity ([5]; 10 ppb added): 2.3 points | Off-Flavor Intensity ([5]; 10 ppt added): 3.4 points | Off-Flavor Intensity ([5]; 50 ppb added): 2.0 points | Off-Flavor Intensity ([5]; 100 ppb added): 1.9 points | Off-Flavor Intensity ([5]; 100 ppt added): 3.1 points | Off-Flavor Intensity ([5]; 500 ppb added): 1.3 points | Off-Flavor Intensity ([6]; 1 ppb added): 2.3 points | Off-Flavor Intensity ([6]; 1 ppm added): 0.6 points | Off-Flavor Intensity ([6]; 5 ppm added): 0.4 points | Off-Flavor Intensity ([6]; 10 ppb added): 1.8 points | Off-Flavor Intensity ([6]; 10 ppt added): 3.1 points | Off-Flavor Intensity ([6]; 50 ppb added): 1.5 points | Off-Flavor Intensity ([6]; 100 ppb added): 1.4 points | Off-Flavor Intensity ([6]; 100 ppt added): 2.8 points | Off-Flavor Intensity ([6]; 500 ppb added): 0.9 points | Off-Flavor Intensity ([7]; 1 ppb added): 2.6 points | Off-Flavor Intensity ([7]; 1 ppm added): 1.0 points | Off-Flavor Intensity ([7]; 5 ppm added): 0.8 points | Off-Flavor Intensity ([7]; 10 ppb added): 2.3 points | Off-Flavor Intensity ([7]; 10 ppt added): 3.3 points | Off-Flavor Intensity ([7]; 50 ppb added): 2.1 points | Off-Flavor Intensity ([7]; 100 ppb added): 1.9 points | Off-Flavor Intensity ([7]; 100 ppt added): 3.0 points | Off-Flavor Intensity ([7]; 500 ppb added): 1.3 points

C=C(C)[C@@H]1CCC2=CC(=O)C[C@@H](C)[C@]2(C)C1 [Nootkatone, nootkatone]
Off-Flavor Intensity ([1]; 1 ppb added): 2.6 points | Off-Flavor Intensity ([1]; 1 ppm added): 1.6 points | Off-Flavor Intensity ([1]; 5 ppm added): 1.1 points | Off-Flavor Intensity ([1]; 10 ppb added): 2.3 points | Off-Flavor Intensity ([1]; 10 ppm added): 0.9 points | Off-Flavor Intensity ([1]; 10 ppt added): 3.4 points | Off-Flavor Intensity ([1]; 100 ppb added): 2.1 points | Off-Flavor Intensity ([1]; 100 ppt added): 3.1 points | Off-Flavor Intensity ([2]; 1 ppb added): 3.1 points | Off-Flavor Intensity ([2]; 1 ppm added): 2.0 points | Off-Flavor Intensity ([2]; 5 ppm added): 1.3 points | Off-Flavor Intensity ([2]; 10 ppb added): 2.9 points | Off-Flavor Intensity ([2]; 10 ppm added): 0.9 points | Off-Flavor Intensity ([2]; 10 ppt added): 3.6 points | Off-Flavor Intensity ([2]; 100 ppb added): 2.4 points | Off-Flavor Intensity ([2]; 100 ppt added): 3.5 points | concentration that masks the off-flavor and does not affect the flavor of the food and/or beverage itself, lower limit [3]: ≥ 100 ppt | concentration that masks the off-flavor and does not affect the flavor of the food and/or beverage itself, upper limit [3]: ≤ 1 ppm | Off-Flavor Intensity ([4]; 1 ppb added): 2.5 points | Off-Flavor Intensity ([4]; 1 ppm added): 1.1 points | Off-Flavor Intensity ([4]; 5 ppm added): 0.6 points | Off-Flavor Intensity ([4]; 10 ppb added): 2.1 points | Off-Flavor Intensity ([4]; 10 ppm added): 0.6 points | Off-Flavor Intensity ([4]; 10 ppt added): 3.1 points | Off-Flavor Intensity ([4]; 100 ppb added): 1.5 points | Off-Flavor Intensity ([4]; 100 ppt added): 3.0 points | Off-Flavor Intensity ([5]; 1 ppb added): 2.8 points | Off-Flavor Intensity ([5]; 1 ppm added): 1.8 points | Off-Flavor Intensity ([5]; 5 ppm added): 1.1 points | Off-Flavor Intensity ([5]; 10 ppb added): 2.4 points | Off-Flavor Intensity ([5]; 10 ppm added): 0.8 points | Off-Flavor Intensity ([5]; 10 ppt added): 3.4 points | Off-Flavor Intensity ([5]; 100 ppb added): 2.1 points | Off-Flavor Intensity ([5]; 100 ppt added): 3.3 points | Off-Flavor Intensity ([6]; 1 ppb added): 2.6 points | Off-Flavor Intensity ([6]; 1 ppm added): 1.5 points | Off-Flavor Intensity ([6]; 5 ppm added): 0.6 points | Off-Flavor Intensity ([6]; 10 ppb added): 2.5 points | Off-Flavor Intensity ([6]; 10 ppm added): 0.4 points | Off-Flavor Intensity ([6]; 10 ppt added): 3.5 points | Off-Flavor Intensity ([6]; 100 ppb added): 1.9 points | Off-Flavor Intensity ([6]; 100 ppt added): 3.1 points | Off-Flavor Intensity ([7]; 1 ppb added): 2.5 points | Off-Flavor Intensity ([7]; 1 ppm added): 1.5 points | Off-Flavor Intensity ([7]; 5 ppm added): 0.9 points | Off-Flavor Intensity ([7]; 10 ppb added): 2.5 points | Off-Flavor Intensity ([7]; 10 ppm added): 0.5 points | Off-Flavor Intensity ([7]; 10 ppt added): 3.4 points | Off-Flavor Intensity ([7]; 100 ppb added): 1.8 points | Off-Flavor Intensity ([7]; 100 ppt added): 2.9 points
